Measurements reported in patent US20250244312A1, “EX VIVO COLONIC BIOPSY PLATFORM TO EVALUATE MULTI-OMIC SIGNATURES FOR SCREENING CANDIDATE THERAPEUTICS” (Athos Therapeutics, Inc., priority 2020, published 2025).
Peptide text beside a SMILES is read from it. l = locked nucleic acid (LNA); [5mC] = 5-methylcytosine; d = 2'-deoxy (DNA)

How the values were obtained:
Assay type in all cases: cell-based, human
IL-1B = IL-1B level in supernatant of colonic explant culture (ELISA), ex vivo biopsy high throughput platform; conditions: 12 h; for IL-1B levels / effectiveness at reducing IL1B levels, compared with the other inhibitors: 10 uM; for IL-1B levels: supernatant of UC active disease colonic biopsy replicate, vs untreated control well; for effectiveness at reducing IL1B levels, compared with the other inhibitors: UC colonic explant
Method: (§1) Step 1: A biopsy was obtained from a macroscopically disease area of the inflammatory intestinal mucosa of an IBD patient. Samples can be from small or large intestine and the patient can be afflicted with, or suspected of having, UC or CD. The medium used to transport mucosal colonic biopsies from IBD patients was pre-cooled on ice, and comprised: Dulbecco's Modified Eagle Medium (DMEM) liquid (High Glucose), 4 mM L-alanyl-L-glutamine dipeptide, 1% penicillin/streptomycin and […] gentamicin. Tissue culture was initiated less than 1 hour after collection.
(§2) Step 2: Once in the laboratory, the biopsy was washed in Hank's Balanced Salt Solution buffer for a few minutes (e.g., 2-5 min) and cut with sterile scalpels to create biopsy pieces (approximately 2-5 um sections). Media comprising Dulbecco's Modified Eagle Medium (DMEM) liquid (High Glucose), 4 mM L-alanyl-L-glutamine dipeptide, 1% FBS, 1% non-essential amino acids, 1% Sodium Pyruvate, 1% penicillin/streptomycin, […] gentamicin and 5 ug/ml insulin-transferrin-selenium-X, was pre-warmed at 37° C. and added to the pieces of the biopsy. The average volume of media for each biopsy was 1.5 mL, which allows generation of 10 replicates in a 96 well plate (150 uL/well) or 60 replicates in a 384 well plate (25 uL/well). The plates then were cultured in a humidified chamber with 95% O2 and 5% CO2. The 96-and 384-well plates are two non-limiting embodiments of the platform assay disclosed herein, though additional embodiments of the high throughput platform disclosed herein can be used to predict drug responses by evaluating multi-omic signatures in other multi-well formats.
(§3) An embodiment of the ex vivo biopsy high throughput platform was used to assess the effects of G9A inhibitors BIX01294 (cat. No 3364, Tocris) and UNC0642 (cat. No 5132, Tocris), JMJD3 inhibitors GSK-J4 (cat. No 4594, Tocris) and JIB-04 (cat. No 4972, Tocris), and an EZH2 inhibitor UNC1999 (cat. No 4904, Tocris) (10 uM) on a multi-omic response, evaluating cytokine production levels and global chromatin H3K9me2 and H3K27me3 levels in UC active disease colonic explants.
(§4) Specifically, a UC active disease colonic biopsy was processed as described in Example 1 and separated into 6 replicates in a 96-well plate. One well was used as control and the rest were treated with each compound at the concentration of 10 uM. Twelve hours later, 50 uL of supernatant was collected to evaluate IL-1B (#KHC0011, ThermoFisher) and TNFA levels (#BMS223HS, ThermoFisher); meanwhile, the tissue pellet was also collected and processed to check H3K9me2 (#P-3032, Epigentek) and H3K27me3 (#P-3020,Epigentek) levels by ELISA assay.
(§5) The biopsy was processed as described in Example 1. Briefly, one well was used as control and treated with RNA-negative control (miR-NC, cat no. YI00199006, Qiagen) (1 uM), a second well was treated with the miR-24-A inhibitor (1 uM), and a third well was treated with miR-24-B inhibitor (1 uM). 50 uL of supernatant was collected to evaluate IL1B and TNFA levels and tissue pellet was collected and processed for RNA extraction (miRNeasy Kit, Qiagen). MicroRNA LNA miRNA PCR assays (Qiagen) were performed for miR-24-3p (cat.no YP00204260, Qiagen).

TNFA = TNFA level in supernatant of colonic explant culture (ELISA), ex vivo biopsy high throughput platform; conditions: 12 h; for TNFA levels / effectiveness at reducing TNFA levels, compared with the other inhibitors: 10 uM; for TNFA levels: supernatant of UC active disease colonic biopsy replicate, vs untreated control well; for effectiveness at reducing TNFA levels, compared with the other inhibitors: UC colonic explant
Method: as §1, §2, §3, §4, §5

miR-24-3p = miR-24-3p expression in UC colonic explant culture (LNA miRNA PCR assay); conditions: 1 uM, 12 h, UC colonic explant tissue pellet
Method: as §1
as §2, with “The 96-and 384-well plates are two non-limiting embodiments of the platform assay disclosed herein, though additional embodiments of the high throughput platform disclosed herein can be used to predict drug responses by evaluating multi-omic signatures in other multi-well formats.” left out

H3K9me2 = experiment: Global chromatin H3K9me2 level in colonic explant tissue pellet (ELISA); conditions: 10 uM, 12 h, tissue pellet of UC colonic explant
Method: as §1
as §2, with “The 96-and 384-well plates are two non-limiting embodiments of the platform assay disclosed herein, though additional embodiments of the high throughput platform disclosed herein can be used to predict drug responses by evaluating multi-omic signatures in other multi-well formats.” left out

H3K27me3 = experiment: Global chromatin H3K27me3 level in colonic explant tissue pellet (ELISA); conditions: 10 uM, 12 h, tissue pellet of UC colonic explant
Method: as §1
as §2, with “formats. […]” for “formats.”

IBD colonic explants = experiment: Cell viability of colonic explants (CellTiter-Blue assay)
Method: as §1
Step 3: Cell viability evaluation. To evaluate the effects of any drug using a colonic explant assay, the viability of the colonic explant in culture is examined. The experimental conditions related to the culture viability of the colonic explants were optimized by focusing on the media composition during the transfer of the biopsy from the patient biopsy collection site to the laboratory and the duration of culturing the explant.
CellTiter-Blue assay (Promega) was used to evaluate cell viability of the colonic explants. Briefly, the CellTiter-Blue reagent was added in the culture and the fluorescent signal was measured (560/590 nm) after 1 h of incubation in 37° C. […]

[1] = 1 uM, UC colonic explant supernatant, control miR-NC

5-CTG^mCTGAA^mCTGAG^mCCA-3 (antisense CTGCTGAACTGAGCCA; sugars from the 5' end l3 d6 l2 d3 l2, [5mC] at 4, 9, 14, all phosphorothioate, methylation of C not given here) [miR-24-A, antisense-miR-24-3p compound; phosphorothioate linkages bases 1-16, LNA at bases 1-3, 10-11, 15-16,5-methylcytosine at positions 4,9, 14]
reducing IL1B levels, compared to miR-24-B inhibitor (IL-1B; [1]): more effective
reducing TNFA levels, compared to miR-24-B inhibitor (TNFA; [1]): more effective
miR-24-3p expression levels, compared to miR-24-B inhibitor (miR-24-3p): more effectively suppressed

COc1cc2nc(N3CCCN(C)CC3)nc(NC3CCN(Cc4ccccc4)CC3)c2cc1OC [BIX01294]
IL-1B levels (IL-1B): reduced
TNFA levels (TNFA): reduced
H3K9me2 levels (H3K9me2): reduced

CCOC(=O)CCNc1cc(N2CCc3ccccc3CC2)nc(-c2ccccn2)n1 [GSK-J4]
effectiveness at reducing IL1B levels, compared with the other inhibitors (IL-1B): more effective than BIX01294 and JIB-04
IL-1B levels (IL-1B): reduced
H3K27me3 levels (H3K27me3): increased
effectiveness at reducing TNFA levels, compared with the other inhibitors (TNFA): more effective than BIX01294 and JIB-04
TNFA levels (TNFA): reduced

Clc1ccc(N/N=C(\c2ccccc2)c2ccccn2)nc1 [JIB-04]
IL-1B levels (IL-1B): reduced
H3K27me3 levels (H3K27me3): increased
TNFA levels (TNFA): reduced

C[C@H](N)C(=O)N[C@@H](CCC(N)=O)C(=O)O [L-alanyl-L-glutamine dipeptide] (H-Ala-Gln-OH)
cell viability of colonic explants (IBD colonic explants; added to the transfer media (DMEM, penicillin/streptomycin, gentamicin)): substantial increase in cell viability
concentration identified to have the highest cell viability (IBD colonic explants; in transfer media): 4 mM

COc1cc2c(NC3CCN(C(C)C)CC3)nc(N3CCC(F)(F)CC3)nc2cc1OCCCN1CCCC1 [UNC0642]
effectiveness at reducing IL1B levels, compared with the other inhibitors (IL-1B): more effective than BIX01294 and JIB-04
IL-1B levels (IL-1B): reduced
effectiveness at reducing TNFA levels, compared with the other inhibitors (TNFA): more effective than BIX01294 and JIB-04
TNFA levels (TNFA): reduced
H3K9me2 levels (H3K9me2): reduced

CCCc1cc(C)[nH]c(=O)c1CNC(=O)c1cc(-c2ccc(N3CCN(C(C)C)CC3)nc2)cc2c1cnn2C(C)C [UNC1999]
IL-1B levels (IL-1B): increased
H3K27me3 levels (H3K27me3): reduced
TNFA levels (TNFA): increased
